Test results published in ChEMBL document CHEMBL4627343, “High throughput in vivo phenotypic screening for drug repurposing: Discovery of MLR-1023 a novel insulin sensitizer and novel Lyn kinase activator with clinical proof of concept” (Bioorg Med Chem, 2020).

Columns and labels:
[1] = Drug uptake in human brain; format: ADME, tissue-based
[2] = Bioavailability in ip dosed […] administered twice daily; format: ADME, organism-based; conditions: in vivo
[3] = Cmax in ip dosed […] administered twice daily; format: ADME, organism-based; parameters: route intraperitoneal; conditions: in vivo
[4] = biological target: Tyrosine-protein kinase Lyn (Homo sapiens, UniProt P07948); test: […] of Lyn (unknown origin)
[5] = Toxicity in ip dosed […] administered twice daily; format: organism-based; conditions: in vivo
[6] = AUC in ip dosed […] administered twice daily; format: ADME, organism-based; conditions: in vivo
[7] = Tmax in ip dosed […] administered twice daily; format: ADME, organism-based; conditions: in vivo

Chain of Tyrosine-protein kinase Lyn (P07948 whole entry): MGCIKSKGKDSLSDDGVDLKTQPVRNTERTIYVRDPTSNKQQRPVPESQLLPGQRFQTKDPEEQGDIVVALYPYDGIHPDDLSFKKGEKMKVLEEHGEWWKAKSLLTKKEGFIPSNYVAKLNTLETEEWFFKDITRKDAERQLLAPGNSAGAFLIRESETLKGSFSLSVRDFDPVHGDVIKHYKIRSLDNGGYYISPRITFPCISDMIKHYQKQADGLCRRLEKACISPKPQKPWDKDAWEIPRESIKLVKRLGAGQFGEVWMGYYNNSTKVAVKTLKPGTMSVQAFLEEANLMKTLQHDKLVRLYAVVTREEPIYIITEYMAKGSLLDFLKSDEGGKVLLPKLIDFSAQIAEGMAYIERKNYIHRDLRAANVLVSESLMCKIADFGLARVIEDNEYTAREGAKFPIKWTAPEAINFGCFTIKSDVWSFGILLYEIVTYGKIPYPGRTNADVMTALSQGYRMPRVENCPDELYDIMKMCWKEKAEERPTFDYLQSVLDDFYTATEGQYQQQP

Cc1cccc(Oc2cnc(=O)[nH]c2)c1 [TOLIMIDONE]
Drug uptake [1]: 1.3%
bioavailability [2]: 53.9%
Cmax [3]: 6540 ng/mL
EC50 [4]: 63 nM
MTD [5]: 100 mg/kg
AUC [6]: 4780 ng·h/mL
Tmax [7]: 15 min
